Results published in patent publication US20250163057A1, “DCN-1 MODULATING COMPOUNDS AND METHODS OF USE THEREOF” (Cellarity, Inc., priority 2023, published 2025).
Where two headings read alike, the source gives them in different places.

Experiments:
[1] = molecular target: DCN1 (DCUND1) protein PONY domain (Homo sapiens (Human), UniProt Q96GG9); assay: TR-FRET assay, DCN1 binding with FAM-labeled probe
Outline: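 Biotinylated DCN1 PONY domain, labeled with streptavidin-Tb, was competed against a FAM-labeled non-covalent DCN1 inhibitor probe in buffer with TritonX and 200 mM NaCl. Conditions were 5 nM DCN1 with 20 nM FAM-probe, or 0.31 nM DCN1 with 100 nM FAM-plus 800 nM unlabeled probe. The TR-FRET ratio was read at 1, 5 and 24 h (0.1% DMSO).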

[2] = tested on: Cullin-3 (CUL3) neddylation; assay: AlphaLISA assay for Cullin-3 (CUL3) neddylation in TF 1 cells; type: cell-based; conditions: Homo sapiens, TF-1, 3 h, 3 hours treatment
Outline: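 TF 1 cells in unsupplemented IMDM treated with compound concentrations for 3 h, then lysed. CUL3 neddylation detected by AlphaLISA (biotinylated anti-NEDD8, anti-CUL3 acceptor beads overnight, streptavidin donor beads 1 h); normalized to vehicle (0%) and 1 μM DI-1548 (100%), IC50 from Hill fits.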

DCN1 protein = DCN1 protein (Homo sapiens (Human), UniProt Q96GG9); assay: Intact Protein MS Analysis with the RapidFire-TOF System (covalent adduct formation); type: binding; conditions: MS Emax; 400 nM DCN1, 3 hours at room temperature
Outline: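 Tag-cleaved human DCN1 (400 nM) expressed in E. coli, in 25 mM Tris-HCl, 200 mM NaCl, 1 mM DTT, was incubated with 11 compound concentrations for 3 h at room temperature and quenched with 0.2% formic acid. Intact-protein Q-TOF MS with deconvolution detected the compound adduct mass.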

[3] = 24 hr after treatment with compound, read-out: TR FRET IC50 24 hr
[4] = TR FRET IC50 1 hr (nM), 1 hr after treatment with compound
[5] = read-out: TR FRET IC50 1 hr, 1 hr after treatment with compound

Chain of DCN1 protein (Q96GG9 whole entry): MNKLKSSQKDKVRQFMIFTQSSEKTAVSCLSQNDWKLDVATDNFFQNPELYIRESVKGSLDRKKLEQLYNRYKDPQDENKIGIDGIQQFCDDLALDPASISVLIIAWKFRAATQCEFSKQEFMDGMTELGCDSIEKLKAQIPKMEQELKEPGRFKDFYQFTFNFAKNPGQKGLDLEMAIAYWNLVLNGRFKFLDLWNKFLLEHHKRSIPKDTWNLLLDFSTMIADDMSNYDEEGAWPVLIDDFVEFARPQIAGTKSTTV
Chain of DCN1 (DCUND1) protein PONY domain (Q96GG9 60-248): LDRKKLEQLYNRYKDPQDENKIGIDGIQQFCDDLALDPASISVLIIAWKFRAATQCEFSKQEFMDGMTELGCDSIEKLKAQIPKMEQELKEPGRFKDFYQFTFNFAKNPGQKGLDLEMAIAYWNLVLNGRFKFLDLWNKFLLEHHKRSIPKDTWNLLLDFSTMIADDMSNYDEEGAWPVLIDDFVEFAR

| SMILES | IC50 [1, 3] [nM] | IC50 [1, 4] [nM] | IC50 [2] [nM] | % Adduct Formation (DCN1 protein) | IC50 [1, 5] [nM] |
| --- | --- | --- | --- | --- | --- |
| CCN1C(=O)[C@@H](NC(=O)c2cccc(C(F)(F)F)c2)[C@@H](c2ccc(F)cc2)c2c(C(=O)N(C)[C@H](C#N)CCO)nn(-c3ccccc3)c21 (relative stereo) [Compound I-301, (4S,5S)—N-[(1S*)-1-cyano-3-hydroxypropyl]-7-ethyl-4-(4-fluorophenyl)-N-methyl-6-oxo-1-phenyl-5-[3-(trifluoromethyl)benzamido]-4H,5H-pyrazolo[3,4-b]pyridine-3-carboxamide] | ≤ 200 | ≤ 200 | ≤ 100 | ++ (MS Emax % adduct formation greater than 30.0 and less than or equal to 80.0) |  |
| CCN1C(=O)[C@@H](NC(=O)c2cccc(C(F)(F)F)c2)[C@@H](c2ccc(F)cc2)c2c(C(=O)N3CCOC[C@@H]3C#N)nn(-c3ccccc3)c21 (mixture of isomers) [Compound I-297] | ≤ 200 | 1000 to 3000 | ≤ 100 | +++ (MS Emax % adduct formation greater than 80.0 and less than or equal to 100.0) |  |
| CCN1C(=O)[C@@H](NC(=O)c2cccc(C(F)(F)F)c2)[C@@H](c2ccc(F)cc2)c2c(C(=O)N3[C@H](C#N)C[C@H]4C[C@H]43)nn(C3CC3)c21 [Compound I-330] | ≤ 200 |  | ≤ 100 | +++ (MS Emax % adduct formation greater than 80.0 and less than or equal to 100.0) | ≤ 200 |
| CCN1C(=O)[C@@H](NC(=O)c2cccc(C(F)(F)F)c2)[C@@H](C2CC2)c2c(C(=O)N3[C@H](C#N)C[C@H]4C[C@H]43)nn(-c3ccccc3)c21 [Compound I-326] | ≤ 200 |  | ≤ 100 | +++ (MS Emax % adduct formation greater than 80.0 and less than or equal to 100.0) | ≤ 200 |
| CCN1C(=O)[C@@H](NC(=O)c2cccc(C(F)(F)F)c2)[C@@H](c2ccc(F)cc2)c2c(C(=O)N(CC#N)CCN(C)C)nn(C3CCOCC3)c21 [Compound I-352] | ≤ 200 |  | ≤ 100 | +++ (MS Emax % adduct formation greater than 80.0 and less than or equal to 100.0) | ≤ 200 |
| CCN1C(=O)[C@@H](NC(=O)c2cccc(C(F)(F)F)c2)[C@H](c2ccc(F)cc2)c2c(CNC(=O)CC#N)nn(-c3ccccc3)c21 [Compound I-299] | 200 to 1000 |  | 100 to 1000 | + (MS Emax % adduct formation greater than or equal to 0.0 and less than or equal to 30.0) | ≤ 200 |
| CCN1C(=O)[C@@H](NC(=O)c2cccc(C(F)(F)F)c2)[C@@H](c2ccc(F)cc2)c2c(C(=O)N(CC#N)CCN3CCN(C4COC4)CC3)nn(-c3ccccc3)c21 [Compound I-323] | ≤ 200 |  | ≤ 100 | +++ (MS Emax % adduct formation greater than 80.0 and less than or equal to 100.0) | ≤ 200 |
| CCN1C(=O)[C@@H](NC(=O)c2cccc(C(F)(F)F)c2)[C@@H](c2ccc(F)cc2)c2c(C(=O)N(C)[C@@H](C#N)CCN3CCN(C4COC4)CC3)nn(-c3ccccc3)c21 [Compound I-317] | ≤ 200 |  | ≤ 100 | +++ (MS Emax % adduct formation greater than 80.0 and less than or equal to 100.0) | ≤ 200 |
| CCN1C(=O)[C@@H](NC(=O)c2cccc(C(F)(F)F)c2)[C@@H](c2ccc(F)cc2)c2c(C(=O)N3CCN(C4COC4)CC3C#N)nn(-c3ccccc3)c21 (stereo partly shown) [Compound I-357] | ≤ 200 |  | ≤ 100 | ++ (MS Emax % adduct formation greater than 30.0 and less than or equal to 80.0) | ≤ 200 |
| CCN1C(=O)[C@@H](NC(=O)c2cccc(C(F)(F)F)c2)[C@@H](C2CC2)c2c(C(=O)N3[C@H](C#N)C[C@H]4C[C@H]43)nn(C3CC3)c21 [Compound I-327] | ≤ 200 |  | ≤ 100 | +++ (MS Emax % adduct formation greater than 80.0 and less than or equal to 100.0) | ≤ 200 |
| CCN1C(=O)[C@@H](NC(=O)c2cccc(C(F)(F)F)c2)[C@@H](c2ccc(F)cc2)c2c(C(=O)N3CCS(=O)(=O)CC3C#N)nn(-c3ccccc3)c21 (stereo partly shown) [Compound I-325] | ≤ 200 |  | ≤ 100 | +++ (MS Emax % adduct formation greater than 80.0 and less than or equal to 100.0) | ≤ 200 |
| CCN1C(=O)[C@@H](NC(=O)c2cccc(C(F)(F)F)c2)[C@@H](c2ccc(F)cc2)c2c(C(=O)N(CC#N)CC#N)nn(-c3ccccc3)c21 [Compound I-302] | ≤ 200 |  | ≤ 100 | +++ (MS Emax % adduct formation greater than 80.0 and less than or equal to 100.0) | ≤ 200 |
| CCN1C(=O)[C@@H](NC(=O)c2cccc(C(F)(F)F)c2)[C@@H](c2ccc(F)cc2)c2c(C(=O)N(C)[C@@H](C#N)CCN3CC4CCC(C3)O4)nn(-c3ccccc3)c21 (mixture of isomers) [Compound I-319] | ≤ 200 | 1000 to 3000 | ≤ 100 | ++ (MS Emax % adduct formation greater than 30.0 and less than or equal to 80.0) |  |
| CCN1C(=O)[C@@H](NC(=O)c2cccc(C(F)(F)F)c2)[C@@H](c2ccc(F)cc2)c2c(C(=O)N3CCC[C@H]3C#N)nn(-c3cccc(OCCN4CCOCC4)c3)c21 [Compound I-339] | ≤ 200 | 1000 to 3000 | ≤ 100 | +++ (MS Emax % adduct formation greater than 80.0 and less than or equal to 100.0) |  |
| N#C[C@@H]1C[C@H]2C[C@H]2N1C(=O)c1nn(C2CCOCC2)c2c1[C@H](C1CC1)[C@H](NC(=O)c1cccc(C(F)(F)F)c1)C(=O)N2C1CC1 [Compound I-388, N-((4S,5S)-3-((1R,3S,5R)-3-cyano-2-azabicyclo[3.1.0]hexane-2-carbonyl)-4,7-dicyclopropyl-6-oxo-1-(tetrahydro-2H-pyran-4-yl)-4,5,6,7-tetrahydro-1H-pyrazolo[3,4-b]pyridin-5-yl)-3-(trifluoromethyl)benzamide] | ≤ 200 |  | ≤ 100 | ++ (MS Emax % adduct formation greater than 30.0 and less than or equal to 80.0) | ≤ 200 |
| C=C(CN1CC2(COC2)C1)C(=O)NCc1nn(-c2ccccc2)c2c1[C@H](c1ccc(F)cc1)[C@H](NC(=O)c1cccc(C(F)(F)F)c1)C(=O)N2CC [Compound I-138] | ≤ 200 |  | ≤ 100 | +++ (MS Emax % adduct formation greater than 80.0 and less than or equal to 100.0) | ≤ 200 |
| CCN1C(=O)[C@@H](NC(=O)c2cccc(C(F)(F)F)c2)[C@@H](c2ccc(F)cc2)c2c(C(=O)N(C)[C@@H](C#N)CCN(C)C3COC3)nn(-c3ccccc3)c21 (single isomer, unassigned) [Compound I-311] | ≤ 200 |  | ≤ 100 | + (MS Emax % adduct formation greater than or equal to 0.0 and less than or equal to 30.0) | ≤ 200 |
| CCN1C(=O)[C@@H](NC(=O)c2ccn(C(F)(F)F)n2)[C@@H](c2ccc(F)cc2)c2c(C(=O)N3CCOC[C@H]3C#N)nn(-c3ccccc3)c21 [Compound I-345] | ≤ 200 | 200 to 1000 | ≤ 100 | +++ (MS Emax % adduct formation greater than 80.0 and less than or equal to 100.0) |  |
| CCCn1nc(C(=O)N(C)C(C)C#N)c2c1N(CC)C(=O)[C@@H](NC(=O)c1cccc(C(F)(F)F)c1)[C@H]2c1ccc(F)cc1 (stereo partly shown) [Compound I-307] | ≤ 200 |  | ≤ 100 | +++ (MS Emax % adduct formation greater than 80.0 and less than or equal to 100.0) | ≤ 200 |
| CCN1C(=O)[C@@H](NC(=O)c2cccc(C(F)(F)F)c2)[C@@H](c2ccc(F)cc2)c2c(C(=O)N(CC#N)CC#N)nn(C3CCOCC3)c21 [Compound I-365] | ≤ 200 |  | ≤ 100 | +++ (MS Emax % adduct formation greater than 80.0 and less than or equal to 100.0) | ≤ 200 |
| C=C(CN1CCOCC1)C(=O)NCc1nn(-c2ccccc2)c2c1[C@H](c1ccc(F)cc1)[C@H](NC(=O)c1cccc(C(F)(F)F)c1)C(=O)N2CC (racemic) [Compound I-67] | ≤ 200 |  | 100 to 1000 | + (MS Emax % adduct formation greater than or equal to 0.0 and less than or equal to 30.0) | ≤ 200 |
| CCN1C(=O)[C@@H](NC(=O)c2cccc(C(F)(F)F)c2)[C@@H](C2CC2)c2c(C(=O)N3CCOC[C@H]3C#N)nn(-c3ccccc3)c21 [Compound I-382] | ≤ 200 | 200 to 1000 | ≤ 100 | +++ (MS Emax % adduct formation greater than 80.0 and less than or equal to 100.0) |  |
